Test system: mutant Huntington (HTT) protein
Test: HTT Mutant HTRF iPSC assay (mHTT protein lowering)
Type: cell-based
Details: human iPSC derived from a HTT patient with a poly-Q49 mutation

| SMILES | IC50 [nM] |
| --- | --- |
| Cc1cn2nc(-c3cc(F)c4nn(C5CCNCC5)nc4c3)ccc2n1 [Compound 384, 4-fluoro-6-(2-methylimidazo[1,2-b]pyridazin-6-yl)-2-(piperidin-4-yl)-2H-benzo[d][1,2,3]triazole] | 100 to 1000 |
| Cc1cn2nc(-c3cc(F)c4nc(C(=O)NC5CN(CC6CC6)C5)cn4c3)cc(C)c2n1 [Compound 339, N-[1-(cyclopropylmethyl)azetidin-3-yl]-6-(2,8-dimethylimidazo[1,2-b]pyridazin-6-yl)-8-fluoro-imidazo[1,2-a]pyridine-2-carboxamide] | < 100 |
| Cc1cn2nc(-c3cc(F)c4nc(NC(=O)C5CCN(C)CC5)cn4c3)cc(C)c2n1 [Compound 269, N-(6-(2,8-dimethylimidazo[1,2-b]pyridazin-6-yl)-8-fluoroimidazo[1,2-a]pyridin-2-yl)-1-methylpiperidine-4-carboxamide] | < 100 |
| Cc1cn2nc(-c3cc(F)c4nc(C5C6CCC5CNC6)cn4c3)cc(C)c2n1 (centres unmarked) [Compound 183, 6-(2-(3-azabicyclo[3.2.1]]octan-8-yl)-8-fluoroimidazo[1,2-a]pyridin-6-yl)-2,8-dimethylimidazo[1,2-blpyridazine] | 100 to 1000 |
| Cc1cn2nc(-c3cc(F)c4nc(N(C)C5CCN(C)C(C)C5)oc4c3)cc(C)c2n1 (centres unmarked) [Compound 473, 6-(2,8-dimethylimidazo[1,2-b]pyridazin-6-yl)-N-(1,2-dimethylpiperidin-4-yl)-4-fluoro-N-methylbenzo[d]oxazol-2-amine] | 100 to 1000 |
| CNC12CCC(c3cn4cc(-c5cc(F)c6nn(C)cc6c5)cc(F)c4n3)(C1)C2 [Compound 77, 4-(8-fluoro-6-(7-fluoro-2-methyl-2H-indazol-5-yl)imidazo[1,2-a]pyridin-2-yl)-N-methylbicyclo[2.1.1] hexan-1-amine] | 1000 to 9000 |
| Cc1cn2cc(-c3cc(F)c4nn(C5CCNCC5)nc4c3)cc(F)c2n1 [Compound 137, 4-fluoro-6-(8-fluoro-2-methylimidazo[1,2-a]pyridin-6-yl)-2-(piperidin-4-yl)-2H-benzo[d][1,2,3]triazole] | 100 to 1000 |
| O=C1Cc2cc(-c3cc(F)c4nc(C5CCNCC5)cn4c3)cc(F)c2N1 [Compound 57, 7-fluoro-5-(8-fluoro-2-(piperidin-4-yl)imidazo[1,2-a]pyridin-6-yl)indolin-2-one] | 1000 to 9000 |
| Cc1cn2nc(-c3cc(F)c4nc(NC(=O)[C@H]5CN[C@@H]5C)cn4c3)cc(C)c2n1 (stereo in doubt) [Compound 286, rel-(2R,3S)-N-(6-(2,8-dimethylimidazo[1,2-b]pyridazin-6-yl)-8-fluoroimidazo[1,2-a]pyridin-2-yl)-2-methylazetidine-3-carboxamide] | < 100 |
| Cc1cn2nc(-c3cc(F)c4nc(N5CCCC(N(C)C)C5)oc4c3)cc(C)c2n1 (centres unmarked) [Compound 500, 1-(6-(2,8-dimethylimidazo[1,2-b]pyridazin-6-yl)-4-fluorobenzo[d]oxazol-2-yl)-N,N-dimethylpiperidin-3-amine] | 100 to 1000 |
| Cc1cn2nc(-c3cc(F)c4[nH]c(C5CCN(CC6CC6)CC5)nc4c3)cc(C)c2n1 [Compound 422, 6-(2-(1-(cyclopropylmethyl)piperidin-4-yl)-7-fluoro-1H-benzo[d]imidazol-5-yl)-2,8-dimethylimidazo[1,2-b]pyridazine] | < 100 |
| CNCCc1cn2cc(-c3cc(C)c4nc(C)cn4n3)cc(F)c2n1 [Compound 12, 2-(6-(2,8-dimethylimidazo[1,2-b]pyridazin-6-yl)-8-fluoroimidazo[1,2-a]pyridin-2-yl)-N-methylethan-1-amine] | 100 to 1000 |
| Cc1cn2nc(-c3cc(F)c4nc(C5CCOCC5)cn4c3)cc(C)c2n1 [Compound 169, 6-(8-fluoro-2-(tetrahydro-2H-pyran-4-yl)imidazo[1,2-a]pyridin-6-yl)-2,8-dimethylimidazo[1,2-b]pyridazine] | 100 to 1000 |
| Cc1cn2nc(-c3cc(F)c4nc(C5CCC(C)(C)NC5)nn4c3)cc(C)c2n1 (centres unmarked) [Compound 445, 6-(2,8-dimethylimidazo[1,2-b]pyridazin-6-yl)-2-(6,6-dimethylpiperidin-3-yl)-8-fluoro-[1,2,4]triazolo[1,5-a]pyridine] | 100 to 1000 |
| Cc1cn2nc(-c3cc(F)c4nc(C5CCN(C6CC6)CC5)cn4c3)ccc2n1 [Compound 106, 6-(2-(1-cyclopropylpiperidin-4-yl)-8-fluoroimidazo[1,2-a]pyridin-6-yl)-2-methylimidazo[1,2-b]pyridazine] | < 100 |
| Cc1cn2nc(-c3cc(F)c4nc(C5CCC6(CCN(C)CC6)C5)cn4c3)cc(C)c2n1 (centres unmarked) [Compound 229, 2-(6-(2,8-dimethylimidazo[1,2-b]pyridazin-6-yl)-8-fluoroimidazo[1,2-a]pyridin-2-yl)-8-methyl-8-azaspiro[4.5]decane] | < 100 |
| Cc1cn2nc(-c3cc(F)c4nc(C5CCN(C6CCOC6)CC5)cn4c3)cc(C)c2n1 (centres unmarked) [Compound 192, 6-(8-fluoro-2-(1-(tetrahydrofuran-3-yl)piperidin-4-yl)imidazo[1,2-a]pyridin-6-yl)-2,8-dimethylimidazo[1,2-b]pyridazine] | < 100 |
| Cc1cn2nc(-c3cc(F)c4nc([C@@H]5CCC6(CCNCC6)C5)cn4c3)cc(C)c2n1 (single isomer, unassigned) [Compound 119] | < 100 |
| Cc1cn2nc(-c3cc(F)c4nc(NC(=O)C5CC6CC5CN6)cn4c3)cc(C)c2n1 (racemic) [Compound 280] | < 100 |
| Cn1cc2cc(-c3cc(F)c4nc(C5CCCNC5)cn4c3)ccc2n1 (centres unmarked) [Compound 16, 5-(8-fluoro-2-(piperidin-3-yl)imidazo[1,2-a]pyridin-6-yl)-2-methyl-2H-indazole] | 100 to 1000 |
| CNCCc1cn2cc(-c3cc(F)c4nc(C)cn4c3)cc(F)c2n1 [Compound 24, 2-(8,8′-difluoro-2′-methyl-[6,6′-biimidazo[1,2-a]pyridin]-2-yl)-N-methylethan-1-amine] | 1000 to 9000 |
| COc1cc(-c2cc(C)c3nn(C)cc3c2)cc2cn(C3CCNCC3)nc12 [Compound 544, 7-methoxy-2′,7′-dimethyl-2-(piperidin-4-yl)-2H,2′H-5,5′-biindazole] | 1000 to 9000 |
| COCCN1CC(NC(=O)c2cn3cc(-c4cc(C)c5nc(C)cn5n4)cc(F)c3n2)C1 [Compound 338, 6-(2,8-dimethylimidazo[1,2-b]pyridazin-6-yl)-8-fluoro-N-[1-(2-methoxyethyl)azetidin-3-yl]imidazo[1,2-a]pyridine-2-carboxamide] | < 100 |
| Cc1cn2nc(-c3cc(F)c4nn(C5C[C@@H](C)N[C@H](C)C5)nc4c3)cc(C)c2n1 (relative stereo) [Compound 393, 6-(2,8-dimethylimidazo[1,2-b]pyridazin-6-yl)-2-((2R,6R)-2,6-dimethylpiperidin-4-yl)-4-fluoro-2H-benzo[d][1,2,3]triazole] | 100 to 1000 |
| Cc1cn2nc(-c3cc(F)c4nc(N(C)C5CC(C)(C)NC(C)(C)C5)oc4c3)ccc2n1 [Compound 504, 4-fluoro-N-methyl-6-(2-methylimidazo[1,2-b]pyridazin-6-yl)-N-(2,2,6,6-tetramethylpiperidin-4-yl)benzo[d]oxazol-2-amine] | 100 to 1000 |
| Cc1cn2nc(-c3cc(F)c4nc(C5CCN(C6CC6)CC5)cn4c3)cc(C)c2n1 [Compound 113, 6-[2-(1-cyclopropyl-4-piperidyl)-8-fluoro-imidazo[1,2-a]pyridin-6-yl]-2,8-dimethyl-imidazo[1,2-b]pyridazine] | < 100 |

— patent US20250353841A1 (BIOGEN MA INC., priority 2022, published 2025)
